MIC data for 25 molecules are collected here from patent US8088791B2, “Antibacterial agents” (Biots Scientific Management Pty Ltd, priority 2006, dated 2012).

≈ marks a conversion by molar mass, not a printed value. Read-outs that look alike come from different tables or passages of the source. A value given as a limit tells only on which side of the number the result lay.

Format in all cases: cell-based
Assay [1] concerns various bacterial species. In words: Minimum Inhibitory Concentration (MIC) testing, broth microdilution, other bacterial species. As for the experimental part:
Compounds of this invention were tested for antimicrobial activity by susceptibility testing in liquid media. MICs for compounds against each strain were determined by a broth microdilution method according to the National Committee for Clinical Laboratory Standards (NCCLS) guidelines. (NCCLS. 2000. Methods for dilution antimicrobial susceptibility tests for bacteria that grow aerobically—fifth edition. Approved standard M7-A5. NCCLS, Wayne, Pa.)
Briefly, test compounds are prepared in 100 μl of 1.6% DMSO solution in multiwell plates. Several bacterial colonies from a freshly streaked plate are transferred to an appropriate rich broth, such as Mueller Hinton. The cell suspension is adjusted to an optical density of 0.09 and further diluted 1:100 with warm 2× broth. This cell suspension is dispensed into the wells containing compound solution so that the final volume is 200 μl. The plates are incubated overnight (16-20 hours) at 37° C. and turbidity is scored by eye and quantified spectrophotometrically. The MIC is defined as the lowest concentration inhibiting visible growth.
Some of the Examples were also tested for activity against other bacterial species. […] Activities were again scored as ‘A’ if the MIC was ≦8 micrograms/ml, ‘B’ if the MIC was 16 to 64 micrograms/ml and ‘C’ if the MIC was greater than 64 micrograms/ml.
For orientation: In broth dilution the organism is exposed to a series of concentrations in liquid medium.

In assay [2] the test system is Staphylococcus aureus ATCC29213. In words: Minimum Inhibitory Concentration (MIC) testing, broth microdilution, Staphylococcus aureus. Particulars: Staphylococcus aureus ATCC29213; read-out: Staphylococcus aureus MICs Activity. The gist of the method:
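Broth microdilution per NCCLS M7-A5 in Mueller Hinton broth, with compound in 1.6% DMSO and inoculum at OD 0.09 diluted 1:100. Plates incubated 16–20 h at 37°C. MIC is the lowest concentration with no visible growth; scored A ≤8, B 16–64, C >64 μg/ml.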

Assay [3] relates to Bacillus subtilis 168CA. In words: Minimum Inhibitory Concentration (MIC) testing, broth microdilution, Bacillus subtilis. Particulars: Bacillus subtilis 168CA; read-out: Bacillus subtilis MICs Activity. The gist of the method: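 MICs were scored A (≦8 μg/ml), B (16–64 μg/ml) or C (>64 μg/ml), read as the lowest concentration preventing visible growth by eye and spectrophotometry. Plates incubated overnight (16–20 h) at 37 °C, inoculum OD 0.09 diluted 1:100 in 2× broth, per NCCLS guidelines.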

Setting [4] is: Staphylococcus epidermidis, ATCC12228, read-out: MIC Activity Staphylococcus epidermidis ATCC 12228.
Setting [5] is: Staphylococcus haemolyticus, ATCC29970, read-out: MIC Activity Staphylococcus haemolyticus ATCC 29970.
[6] abbreviates: Staphylococcus saprophyticus, ATCC15305, read-out: MIC Activity Staphylococcus saprophyticus ATCC 15305.

Turning to `NC(=O)c1c(F)ccc(OCc2nc3cc(Cl)cnc3s2)c1F` [Example 139, 3-(6-Chloro-thiazolo[5,4-b]pyridin-2-ylmethoxy)-2,6-difluoro-benzamide], the MIC in assay [1] (setting [4]), in assay [1] (setting [5]), in assay [2] and in assay [3] was less than 8 µg/mL throughout.

In the case of `NC(=O)c1cccc(OCc2nc(-c3ccc(Cl)cc3)cs2)c1F` [Example 271, 3-[4-(4-Chloro-phenyl)-thiazol-2-ylmethoxy]-2-fluoro-benzamide], the MIC in assay [1] (setting [4]), in assay [2] and in assay [3] was less than 8 µg/mL in each case.

Turning to `CCCCCCCCCOc1cccc(C(N)=O)c1F` [Example 175, 2-Fluoro-3-(nonyloxy)benzenecarboxamide], the MIC in assay [1] (setting [4]), in assay [2] and in assay [3] was less than 8 µg/mL in each case.

Turning to `C#CCCCCCCCCCOc1ccc(F)c(C(N)=O)c1F` [Example 88, 2,6-Difluoro-3-(10-undecynyloxy)benzenecarboxamide], the MIC in assay [1] (setting [4]), in assay [2] and in assay [3] was less than 8 µg/mL throughout.

As for `COc1ccc(-c2nc(COc3ccc(F)c(C(N)=O)c3F)sc2-c2ccc(OC)cc2)cc1` [Example 282, 2,6-Difluoro-3-[5-(4-methoxy-phenyl)-4-(4-methoxy-phenyl)-thiazol-2-ylmethoxy]-benzamide], the MIC in assay [1] (setting [4]), in assay [2] and in assay [3] was less than 8 µg/mL in each case.

As to `NC(=O)c1c(F)ccc(OCc2nc3cc(-c4ccccc4)ccc3s2)c1F` [Example 114, 2,6-Difluoro-3-(5-phenyl-benzothiazol-2-ylmethoxy)-benzamide], the MIC in assay [1] (Bacillus cereus, ATCC14579, read-out: MIC Activity Bacillus cereus ATCC 14579) is less than 8 µg/mL; in assay [1] (setting [6]), less than 8 µg/mL; in assay [2], less than 8 µg/mL; in assay [3], less than 8 µg/mL.

As to `COc1ccc(-c2coc(COc3ccc(F)c(C(N)=O)c3F)n2)cc1` [Example 311, 2,6-Difluoro-3-[4-(4-methoxy-phenyl)-oxazol-2-ylmethoxy]-benzamide], the MIC in assay [1] (setting [4]), in assay [2] and in assay [3] was less than 8 µg/mL in each case.

Turning to `COc1ccc(-c2nc(COc3ccc(F)c(C(N)=O)c3F)sc2-c2ccccc2)cc1` [Example 287, 2,6-Difluoro-3-[4-(4-methoxy-phenyl)-5-phenyl-thiazol-2-ylmethoxy]-benzamide], the MIC in assay [1] (setting [5]), in assay [2] and in assay [3] was less than 8 µg/mL throughout.

For `C#CCCCCCCCCCOc1cccc(C(N)=O)c1` [Example 46, 3-(10-Undecynyloxy)benzenecarboxamide], the MIC in assay [1] (setting [4]), in assay [2] and in assay [3] was less than 8 µg/mL in each case.

In the case of `CCCCCC/C=C/COc1ccc(F)c(C(N)=O)c1F` [Example 84, 2,6-Difluoro-3-[(E)-2-nonenyloxy]benzenecarboxamide], the MIC in assay [1] (setting [4]), in assay [2] and in assay [3] was less than 8 µg/mL each time.

Regarding `C#CCCCCCCCCCOc1cccc(C(N)=O)c1F` [Example 177, 2-Fluoro-3-(10-undecynyloxy)benzenecarboxamide], the MIC in assay [1] (setting [4]), in assay [2] and in assay [3] was less than 8 µg/mL in each case.

Regarding `NC(=O)c1c(F)ccc(OCc2nc3ccccc3s2)c1F` [Example 215, 3-(1,3-Benzothiazol-2-ylmethoxy)-2,6-difluorobenzenecarboxamide], the MIC in assay [1] (setting [4]), in assay [2] and in assay [3] was less than 8 µg/mL in each case.

Take `NC(=O)c1c(F)ccc(OCc2ccc3ccc(Cl)cc3n2)c1F` [Example 111, 3-(7-Chloro-quinolin-2-ylmethoxy)-2,6-difluoro-benzamide]: the MIC in assay [1] (setting [6]), in assay [2] and in assay [3] was less than 8 µg/mL each time.

As to `CCCC/C=C\CCCCOc1ccc(F)c(C(N)=O)c1F` [Example 87, 2,6-Difluoro-3-[(Z)-5-decenyloxy]benzenecarboxamide], the MIC in assay [1] (setting [4]), in assay [2] and in assay [3] was less than 8 µg/mL in each case.

For `CCCc1ccc2sc(COc3ccc(F)c(C(N)=O)c3F)nc2c1` [Example 135, 2,6-Difluoro-3-(5-propyl-benzothiazol-2-ylmethoxy)-benzamide], the MIC in assay [1] (setting [5]), in assay [2] and in assay [3] was less than 8 µg/mL in each case.

On to `COc1ccc(-c2nc(COc3ccc(F)c(C(N)=O)c3F)sc2-c2cscn2)cc1` [Example 288, 2,6-Difluoro-3-[4′-(4-methoxy-phenyl)-[4,5′]bithiazolyl-2′-ylmethoxy]-benzamide], for which the MIC in assay [2] and in assay [3] was less than 8 µg/mL in each case.

Regarding `NC(=O)c1ccnc(OCc2nc(-c3ccc(Cl)cc3)cs2)c1` [Example 275, 2-[4-(4-Chloro-phenyl)-thiazol-2-ylmethoxy]-isonicotinamide], the MIC in assay [2] and in assay [3] was 16 to 64 µg/mL (≈ 46.3 to 185 µM) throughout.

On to `COc1ccc2ccc(COc3ccc(F)c(C(N)=O)c3F)nc2c1` [Example 98, 2,6-Difluoro-3-(7-methoxy-quinolin-2-ylmethoxy)-benzamide], for which the MIC in assay [2] and in assay [3] was less than 8 µg/mL in each case.

Regarding `Cc1cnc(COc2ccc(F)c(C(N)=O)c2F)s1` [Example 192, 2,6-Difluoro-3-[(5-methyl-1,3-thiazol-2-yl)methoxy]benzenecarboxamide], the MIC in assay [2] and in assay [3] was more than 64 µg/mL throughout.

As to `NC(=O)c1c(F)ccc(OCc2nc3cc([N+](=O)[O-])ccc3o2)c1F` [Example 214, 2,6-Difluoro-3-[(5-nitro-1,3-benzoxazol-2-yl)methoxy]benzenecarboxamide], the MIC in assay [2] and in assay [3] was 16 to 64 µg/mL (≈ 45.8 to 183 µM) each time.

`COc1ccc(-c2nc(COc3ccc(F)c(C(N)=O)c3F)sc2-c2ccccc2N)cc1` [Example 283, 2,6-Difluoro-3-[5-(2-amino-phenyl)-4-(4-methoxy-phenyl)-thiazol-2-ylmethoxy]-benzamide]: the MIC in assay [2] and in assay [3] was less than 8 µg/mL each time.

As to `NC(=O)c1c(F)ccc(OCc2nc(-c3c(Cl)cccc3Cl)no2)c1F` [Example 260, 3-[3-(2,6-Dichlorophenyl)-1,2,4-oxadiazol-5-yl]methoxy-2,6-difluorobenzenecarboxamide], the MIC in assay [2] and in assay [3] was less than 8 µg/mL each time.

Turning to `NC(=O)c1c(F)ccc(OCc2csc(Nc3ccccc3)n2)c1F` [Example 237, 3-[(2-Anilino-1,3-thiazol-4-yl)methoxy]-2,6-difluorobenzenecarboxamide], the MIC in assay [2] and in assay [3] was 16 to 64 µg/mL (≈ 44.3 to 177 µM) throughout.

For the molecule `CCCCCCOc1cc(F)cc(C(N)=O)c1` [Example 167, 3-Fluoro-5-hexyloxy benzamide], the MIC in assay [2] and in assay [3] was 16 to 64 µg/mL (≈ 66.9 to 267 µM) each time.

With `CCCCCC/C=C/COc1ccc(F)c(C(N)=O)c1` [Example 74, 2-Fluoro-5-[(E)-2-nonenyloxy]benzenecarboxamide], the MIC in assay [2] and in assay [3] was less than 8 µg/mL in each case.
